Measured values from article PMC9500038, “A fungal tolerance trait and selective inhibitors proffer HMG-CoA reductase as a herbicide mode-of-action” (Nature Communications, 2022).
“Also recorded” adds a separate entry of the source.

Tests used:
[1] = test system: 35 S::AtHMG1-L558T A. thaliana lines; type: in vivo, Arabidopsis thaliana
Description: DNA encoding the full-length AtHMG1 protein (Uniprot P14891, residues 1–592) and the corresponding L558T mutant were cloned into a derivative of the pMDC43 binary vector[75] to yield 35 S::AtHMG1 and 35 S::AtHMG1-L558T transgenes, respectively. These constructs were then introduced into Agrobacterium tumefaciens strain LBA4404 and separately used to transform A. thaliana by the floral dip method[76],[77]. Seeds (T0/1) of transformed plants were collected and surface sterilised using 600 µL 70% ethanol, 750 µL 100% ethanol and soaked in 800 µL 50% bleach for 8 min, before washing with 800 µL sterile water and resuspension with 0.1% agar. Selection was performed on 30 µg/mL hygromycin growth medium (1% agar, 1% glucose, 0.45% Murashige & Skoog salts with vitamins, 0.3% 2-(N-morpholino)-ethanesulfonic acid (MES) (v/v), pH 5.7) in a growth room at 22 °C with 16:8 h light:dark photoperiod and 60% relative humidity. Surviving plants were transferred to 63 ×63 × 59 mm pots of Irish peat and grown to maturity in the same growth conditions. Seeds from plants with an adequate seed yield were then sterilised and selected again as described above with 30 µg/mL hygromycin growth medium. […] Plates were sealed with porous tape and grown for a minimum of 10 days with the growth conditions described above. Plates were then imaged, and growth quantified using ImageJ as described above. Total green pixels were normalised against negative controls for the respective lines (2% DMSO and water) to provide percentage inhibition. […] Growth inhibition at varying concentrations of hygromycin and rosuvastatin were plotted with a four-parameter non-linear regression model using GraphPad Prism 9.

A. thaliana = assay: Herbicidal activity assay on soil, pre- and post-emergence; type: in vivo, Arabidopsis thaliana; settings: for herbicidal activity: pre- and post-emergence
Description: Approximately 30 seeds of A. thaliana (accession Col-0) or E. tef were sown in 63 × 63 × 59 mm pots of Irish peat (Bord na Móna Horticulture Ltd, Newbridge, Ireland). Seeds were incubated in the dark for 3 days at 4 °C to synchronise germination. A single pre-emergence treatment (day 0) was performed when these seeds were transferred to a growth room at 22 °C with a 16:8 h light:dark photoperiod and 60% relative humidity. Two post-emergence treatments were performed following emergence of the seedlings (day 1) at days 4 and 7. Plants were watered accordingly throughout the experiment to maintain adequate moisture and photographed on day 16. Treatments were conducted with rosuvastatin, simvastatin, fluvastatin, atorvastatin (AK Scientific), pravastatin (BOC Sciences), lovastatin (Sapphire Bioscience), mevastatin, pitavastatin (Focus Bioscience), glyphosate, RoundUp® and atorvastatin analogues (1–9). To treat, 0.5 mL of each compound in a final concentration of 2% dimethyl sulfoxide (DMSO) and 0.02% Brushwet (SST Dandenong, Australia) was pipetted onto seedlings. Full experimental details and characterisation of atorvastatin analogue 1–9 synthesis can be found in Supplementary Method 1 and Supplementary Figs. 7–62. Growth inhibition was quantified by detecting green pixels for healthy seedlings using ImageJ (National Institutes of Health, 1.53 v) and the ‘Threshold Colour’ plug-in with the following settings: hue 50–110, saturation 125–255, brightness 30–255[67]. Images were converted into 8-bit format, and pixels measured over the same area. Data were normalised to a negative control to provide percentage inhibition.

[2] = test system: wild-type (WT) A. thaliana; assay: In planta statin resistance assay, non-transformed WT; type: in vivo; settings: Arabidopsis thaliana; growth medium, green pixels; read-out: IC50 growth inhibition, non-transformed WT
Description: (§1) DNA encoding the full-length AtHMG1 protein (Uniprot P14891, residues 1–592) and the corresponding L558T mutant were cloned into a derivative of the pMDC43 binary vector[75] to yield 35 S::AtHMG1 and 35 S::AtHMG1-L558T transgenes, respectively. These constructs were then introduced into Agrobacterium tumefaciens strain LBA4404 and separately used to transform A. thaliana by the floral dip method[76],[77]. Seeds (T0/1) of transformed plants were collected and surface sterilised using 600 µL 70% ethanol, 750 µL 100% ethanol and soaked in 800 µL 50% bleach for 8 min, before washing with 800 µL sterile water and resuspension with 0.1% agar. Selection was performed on 30 µg/mL hygromycin growth medium (1% agar, 1% glucose, 0.45% Murashige & Skoog salts with vitamins, 0.3% 2-(N-morpholino)-ethanesulfonic acid (MES) (v/v), pH 5.7) in a growth room at 22 °C with 16:8 h light:dark photoperiod and 60% relative humidity. Surviving plants were transferred to 63 ×63 × 59 mm pots of Irish peat and grown to maturity in the same growth conditions. Seeds from plants with an adequate seed yield were then sterilised and selected again as described above with 30 µg/mL hygromycin growth medium. […] Plates were sealed with porous tape and grown for a minimum of 10 days with the growth conditions described above. Plates were then imaged, and growth quantified using ImageJ as described above. […]

[3] = test system: 35 S::AtHMG1 A. thaliana lines; assay: In planta statin resistance assay, 35 S::AtHMG1 lines; type: in vivo; settings: Arabidopsis thaliana; 19 T2 lines combined; read-out: IC50 growth inhibition, 35 S::AtHMG1 lines
Description: as §1

AtHMG1 = molecular target: T1, AtHMG1 (Arabidopsis thaliana, UniProt P14891); assay: biochemical; type: biochemical; settings: for IC50: wild-type AtHMG1, in vitro; for selectivity for AtHMG1 in vitro (dose-response): inhibition profiles AtHMG1 versus HsHMGCR
T1 construct: AtHMG1 (Uniprot P14891, At1g76490, residues 121–592); His6 (N); TEV cleavage site (N); made in house; host or cells: E. coli T7 SHuffle Express
Description: An E. coli codon-optimised DNA sequence encoding the conserved […] region of AtHMG1 (Uniprot P14891, At1g76490, residues 121–592) was cloned into pQE30 (Qiagen) following an N-terminal His6-tag and tobacco etch virus cleavage site. The protein was expressed in the T7 SHuffle Express strain of E. coli (New England Biolabs) transformed with pREP4 (Qiagen) with the proteins expressed and purified as previously described. Briefly, cultures were grown in lysogeny broth containing 100 μg/mL ampicillin and 35 μg/mL kanamycin at 30 °C to an OD600 of 0.8–1.0. Cells were cooled to 16 °C before the expression was induced with 0.1 mM isopropyl β-D-1-thiogalactopyranoside. Following overnight culture, cells were harvested by centrifugation and lysed by ultrasonication in 100 mM HEPES (pH 7.5), 150 mM sodium chloride, 5 mM dithiothreitol, 0.1% Triton X-100. Lysed cells were then centrifuged (15,000×g) and the supernatant was incubated in 30 mL batches with Ni-NTA resin overnight at 4 °C. The resin was then washed with 50 mL of 100 mM HEPES (pH 7.5), 150 mM sodium chloride, 5 mM dithiothreitol followed by 50 mL of 100 mM HEPES (pH 7.5), 150 mM sodium chloride, 5 mM dithiothreitol, 20 mM imidazole. The protein was then eluted with 50 mL of 100 mM HEPES (pH 7.5), 150 mM sodium chloride, 5 mM dithiothreitol, 300 mM imidazole. Eluted protein was concentrated with a 30 kDa centrifugal filter unit (Millipore) and purified by size-exclusion chromatography (HiLoad 16/600 Superdex 200) in 100 mM HEPES (pH 7.5), 150 mM sodium chloride, 5 mM dithiothreitol. The protein was assessed for purity by SDS-PAGE, and protein concentration was determined by spectrophotometry.
(§2) AtHMG1 described above and human HMGR (HsHMGCR, Uniprot P04035, residues 441–888, cloned as above) were purified as above, and activity was determined by spectrophotometric measurement of the decrease in absorbance at 340 nm that occurs with NADPH oxidation in the presence of substrate HMG-CoA (Sigma-Aldrich). Reactions were performed with an assay buffer consisting of 150 mM sodium chloride, 5 mM dithiothreitol, 50 mM HEPES pH 7.4 and 2% DMSO. For kinetics determinations, a final concentration of 150 nM enzyme was incubated at 37 °C in 300 μM NADPH and different concentrations of HMG-CoA. Non-linear regression analysis was performed with GraphPad Prism 9 by plotting the initial reaction rates, v0, interpolated from a standard curve against the substrate concentration. The Michaelis–Menten constant, Km, was determined by fitting the data with a Michaelis–Menten equation and values for kcat were calculated by dividing Vmax by the molar enzyme concentration. To calculate relative specific activity, 500 nM of test compounds were pre-incubated at 37 °C with enzyme and 300 μM NADPH for 15 min before adding HMG-CoA to 200 μM. Resultant values were background subtracted and normalised to the average of the no-inhibitor control. For IC50 determinations, the same protocol was used, but varying inhibitor concentrations. Rosuvastatin data were plotted with a four-parameter (WT), and normalised response (L558T) non-linear regression model and atorvastatin and analogues were plotted with a normalised response with variable slope non-linear regression model.

AtHMG1-L558T = molecular target: T2, AtHMG1-L558T (Arabidopsis thaliana, UniProt P14891, L558T); assay: biochemical; type: biochemical; settings: for AtHMG1-L558T activity in the presence of statin: 500 nM, in comparison to wild-type
T2 construct: AtHMG1 (Uniprot P14891, At1g76490, residues 121–592); His6 (N); TEV cleavage site (N); made in house; host or cells: E. coli T7 SHuffle Express
Description: as §2

HsHMGCR = molecular target: T3, HsHMGCR (Homo sapiens, UniProt P04035); assay: In vitro HMGR assay (NADPH depletion), HsHMGCR; type: biochemical
T3 construct: HsHMGCR, Uniprot P04035, residues 441–888; His6 (N); TEV cleavage site (N); made in house; host or cells: E. coli T7 SHuffle Express (by 'cloned as above ... purified as above')
T3 sequence (P04035 441-888): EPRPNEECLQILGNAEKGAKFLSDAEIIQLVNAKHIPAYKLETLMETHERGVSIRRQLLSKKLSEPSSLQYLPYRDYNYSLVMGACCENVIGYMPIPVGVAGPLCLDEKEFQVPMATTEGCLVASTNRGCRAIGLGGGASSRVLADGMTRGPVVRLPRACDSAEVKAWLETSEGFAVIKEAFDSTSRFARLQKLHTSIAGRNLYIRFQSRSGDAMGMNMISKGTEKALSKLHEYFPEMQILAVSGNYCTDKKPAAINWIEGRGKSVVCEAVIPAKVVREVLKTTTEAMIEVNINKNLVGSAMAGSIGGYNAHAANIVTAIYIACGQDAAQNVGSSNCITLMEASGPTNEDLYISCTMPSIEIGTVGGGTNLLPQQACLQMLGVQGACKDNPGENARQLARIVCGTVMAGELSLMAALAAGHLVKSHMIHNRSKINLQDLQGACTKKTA
Description: as §2, with “Rosuvastatin data were plotted with a four-parameter (WT), and normalised response (L558T) non-linear regression model and atorvastatin and analogues were plotted with a normalised response with variable slope non-linear regression model.” left out

T1 sequence (P14891 121-592): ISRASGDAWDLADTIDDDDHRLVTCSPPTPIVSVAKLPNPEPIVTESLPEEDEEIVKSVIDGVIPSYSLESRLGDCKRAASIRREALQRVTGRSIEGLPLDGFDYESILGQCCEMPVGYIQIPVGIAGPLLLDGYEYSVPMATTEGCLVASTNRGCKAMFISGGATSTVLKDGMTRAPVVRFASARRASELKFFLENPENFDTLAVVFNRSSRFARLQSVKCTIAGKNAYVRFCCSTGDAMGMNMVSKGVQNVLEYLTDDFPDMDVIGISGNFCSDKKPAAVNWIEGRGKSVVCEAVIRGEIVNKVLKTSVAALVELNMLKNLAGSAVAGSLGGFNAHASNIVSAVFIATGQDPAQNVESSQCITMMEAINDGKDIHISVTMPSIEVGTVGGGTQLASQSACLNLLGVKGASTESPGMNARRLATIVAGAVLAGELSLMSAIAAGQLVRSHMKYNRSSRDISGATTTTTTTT
T2 sequence (P14891 121-592 L558T): as the sequence (P14891 121-592) above, with L438T counted along it

## CC(C)c1nc(N(C)S(C)(=O)=O)nc(-c2ccc(F)cc2)c1/C=C/[C@@H](O)C[C@@H](O)CC(=O)O [rosuvastatin]
[1]; 80 µM versus 5 µM, compared to untreated WT
  35 S::AtHMG1-L558T lines less sensitive to treatment than 35 S::AtHMG1 lines: up to 16 fold
[1]; in planta
  resistance of 35 S::AtHMG1-L558T lines versus 35 S::AtHMG1 lines: over sixfold more resistant
  resistance of 35 S::AtHMG1-L558T lines versus non-transformed WT: more than 100 fold
A. thaliana
  herbicidal activity: most herbicidal statin
A. thaliana; rosuvastatin without formulation beyond a wetting agent, Roundup formulated, same conditions
  concentration lethal to A. thaliana: ~ 15 μM
[2]
  IC50: 3000 nM
[3]
  IC50: 46000 nM
AtHMG1
  IC50: 53 nM
AtHMG1-L558T
  IC50: > 1000 nM
  AtHMG1-L558T activity in the presence of statin: retained activity
AtHMG1-L558T; in vitro
  resistance of AtHMG1-L558T versus WT in vitro: > 20 fold

## CC[C@H](C)C(=O)O[C@H]1CCC=C2C=C[C@H](C)[C@H](CC[C@@H]3C[C@@H](O)CC(=O)O3)[C@H]21 [mevastatin]
AtHMG1-L558T
  AtHMG1-L558T activity in the presence of statin: retained activity

## CC[C@H](C)C(=O)O[C@H]1C[C@@H](C)C=C2C=C[C@H](C)[C@H](CC[C@@H]3C[C@@H](O)CC(=O)O3)[C@H]21 [lovastatin]
AtHMG1-L558T
  AtHMG1-L558T activity in the presence of statin: retained activity

## O=C(O)C[C@H](O)C[C@H](O)CCn1c(-c2ccc(F)cc2)c(-c2ccccc2)c(C(=O)Nc2ccccc2)c1C1CCCC1 [compound 8]
AtHMG1
  selectivity for AtHMG1 in vitro (dose-response): not selective

## O=C(O)C[C@H](O)C[C@H](O)/C=C/c1c(C2CC2)nc2ccccc2c1-c1ccc(F)cc1 [pitavastatin]
AtHMG1-L558T
  AtHMG1-L558T activity in the presence of statin: retained activity

## O=C(O)C[C@H](O)C[C@H](O)CCn1c(-c2ccc(F)cc2)c(-c2ccccc2)c(C(=O)Nc2ccccc2)c1C1CCC1 [compound 7]
A. thaliana
  herbicidal activity: retained herbicidal activity
HsHMGCR
  IC50: 890 nM
AtHMG1; in vitro, from IC50 dose-response curves
  specificity for AtHMG1 over HsHMGCR: > 20 fold
AtHMG1; initial screen at 500 nM
  selectivity in vitro for AtHMG1 over HsHMGCR: selective; also recorded: preference for AtHMG1 over HsHMGCR
AtHMG1
  IC50: 32 nM

## CC(C)c1c(C(=O)Nc2ccccc2)c(-c2ccccc2)c(-c2ccc(F)cc2)n1CC[C@@H](O)C[C@@H](O)CC(=O)O [atorvastatin]
AtHMG1
  selectivity for AtHMG1 in vitro (dose-response): not selective
AtHMG1-L558T
  AtHMG1-L558T activity in the presence of statin: retained activity

## CC(C)n1c(/C=C/C(O)CC(O)CC(=O)O)c(-c2ccc(F)cc2)c2ccccc21 (stereo not shown) [fluvastatin]
AtHMG1-L558T
  AtHMG1-L558T activity in the presence of statin: retained activity

## CC[C@H](C)C(=O)O[C@H]1C[C@H](O)C=C2C=C[C@H](C)[C@H](CC[C@@H](O)C[C@@H](O)CC(=O)O)[C@H]21 [pravastatin]
AtHMG1-L558T
  AtHMG1-L558T activity in the presence of statin: retained activity

## CCC(C)(C)C(=O)O[C@H]1C[C@@H](C)C=C2C=C[C@H](C)[C@H](CC[C@@H]3C[C@@H](O)CC(=O)O3)[C@H]21 [simvastatin]
AtHMG1-L558T
  AtHMG1-L558T activity in the presence of statin: retained activity
